Test system: syngeneic C57BL/6 mice
Experiment: Syngeneic mouse model of endometriosis: mechanical allodynia by von Frey pain stimulation procedure
Assay type: in vivo
Details: 30 mg/kg i.p., day 4 and 5, measured one hour following treatment; p<0.05; FIG. 1A
Description: A P2X3 receptor antagonist compound of Formula (I) described herein was evaluated in the syngeneic mouse model of endometriosis.
C57BL/6 mice (8 weeks old) were anesthetized before making a vertical incision on the abdomen. The uterus was collected and divided into pieces of 5 millimeters which were then surgically sutured onto the peritoneum of syngeneic recipient animals. The recipient mice were also treated with oestradiol and the resulting lesions were allowed to develop for 11 weeks.
Baseline measurements were established on Day 0 by measuring mechanical allodynia in all transplanted mice using a von Frey pain stimulation procedure in accordance with the protocol described below. On Day 1 transplanted mice were injected with saline (i.p.) and mechanical allodynia was again measured using the von Frey filament method (control). […] Mechanical allodynia was evaluated using the von Frey pain stimulation procedure. […] The mice were euthanized on Day 6 and evaluated for the presence of endometriotic lesions.
Animals were placed in small cages with a mesh or otherwise penetrable bottom. The pain threshold was evaluated with von Frey filaments using the simplified up-down method, which determines the mechanical force required to elicit a positive pain response in animals. […]

CNC(=O)c1cc(F)c(-c2nc3cc(C)ccn3c2C[C@H]2CN(C(=O)OC)CCO2)c(F)c1 [Compound 1]
stimulus threshold (von Frey test; pressure stimulus required to elicit behavioral response, change from baseline Day 0): greater stimulus threshold
